# Measured values: US20110110911A1 (priority 2009, published 2011)
# System: DU-145 cells
# Type: cell-based, human
smiles,measurement,value
C=C1[C@@H](C)[C@H]2[C@H](Cc3ccccc3)NC(=O)[C@]23[C@H](OC(C)=O)/C=C/[C@@](C)(O)C(=O)[C@@H](C)C/C=C/[C@H]3[C@@H]1O [Cytochalasin-D],"Relative Wound Density at 24 Hours, Mean",3.3 ± 0.2
same,"Relative Wound Density at 24 Hours, Percent Relative to Media",4%
same,effect on cell migration (in words),did not migrate
